Measured values: US11198686B2, “Crystal form and salt form of pyridone compound and preparation method therefor” (GUANGZHOU JOYO PHARMATECH CO., LTD., priority 2017, dated 2021)
In brackets after ≈: the same amount, converted by molar mass. Blank lines part the entries; values can stand above or below the compound they belong to.

Columns and labels:
[1] = Study on polymorphism of Compound 1 (suspension in solvents, XRPD); type: physicochemical; details: for Crystal form: 40° C., 2 days
Procedure: Approximate 50 mg of the sample were weighed and added to separate 4.0 mL glass vials, respectively, followed by addition of an appropriate amount of the solvents or solvent mixture (see the table below) to give a suspension. After shaking at 40° C. for 2 days, all the samples were taken out and centrifuged in a centrifuge at 8000 r/min for 5 minutes. The supernatant was discarded, and the remaining solid was dried in a 35° C. vacuum drying box for two days. The dried samples were taken out for XRPD detection.

TNF-α = assay: Ex-vivo effect on endotoxin LPS-induced TNF-α in rat blood (ELISA); type: cell-based, Sprague Dawley rats
Procedure: Experimental objective: testing the effect of Compound 1 on bacterial lipopolysaccharide (LPS)-induced TNF-α in rat blood to evaluate the anti-inflammatory effect ex-vivo
Sprague Dawley rats (male, 280-310 g, Shanghai Slac Laboratory Animal CO. LTD)
Rat TNF-alpha Quantikine ELISA Kit (R&D, #SRTA00)
A solution of the compound was prepared (5 mM or 1 mM), and 40 μL of the prepared solution was added into a 48-well cell culture plate, respectively (the final concentration of the compounds was 0.5 or 0.1 mM). The rats were anaesthetized with isoflurane and the blood was collected from the abdominal aorta (Heparin anticoagulant). The blood was added into the 48-well cell culture plate (320 μL per well) containing the compounds to be tested. Afterwards, the 48-well cell culture plate was incubated at 37° C. for 30 minutes. Then the plate was taken out, and 40 μL of LPS (the final concentration was 100 μg/mL) was added and mixed evenly. The resulting mixture was incubated at 37° C. After 5 hours, the 48-well plate was taken out and the blood was transferred into 1.5 mL centrifuge tubes and centrifuged in a centrifuge (4,500 rpm, 4° C., 5 min). The supernatant was isolated to obtain the plasma, which was aliquoted (20 μL per well) into a 96-well sample plate, and then sharp-frozen and preserved in a refrigerator (−80° C.). On the second day, the TNF-α level in the plasma samples was determined by using R&D ELISA kits according to the kit specification. The data was analyzed by EXCEL and Prism.

[2] = Approximate solubility of crystal form A in different solvents (manual stepwise dilution); type: physicochemical; details: thermodynamic from solid, ambient temperature
Procedure: In this study, the method of manual stepwise dilution along with the observation of the dissolution under ambient temperature condition was used for determination. About 2 mg of crystal form A of Compound 1 was added to separate HPLC vials, followed by multiple addition of organic solvents or the mixed solvents (Table 5) in a small amount, and the dissolution of the compound was monitored.

[3] = Solid-state physical stability test of crystal form A under different temperature, humidity and light irradiation; type: physicochemical; details: for Appearance / Crystal form: 10 d
Procedure: 4 samples of 100 mg of crystal form A solid were weighed in parallel and spread evenly on the bottom of the glass bottles into a thin layer. The bottles were sealed with aluminum foil, and some small holes were punched on the aluminum foil to allow the sample to be fully in contact with the ambient air. The 4 samples prepared were placed under the conditions of 25° C./92.5% RH, 60° C., 40° C./75% RH and light irradiation, and the physical stability of the samples on the 10th day was examined. In the meantime, about 100 mg of crystal form A solid was weighed separately, placed on the bottom of a glass sample bottle, sealed with a screw cap and stored at −20° C., this sample was used as the control sample. On the 10th day, all samples were taken out, and returned to room temperature. The appearance change of the samples was observed, and XRPD was used to detect the crystal form of the samples. By comparing the accelerated samples with the control sample, the solid-state physical stability of crystal form A of Compound 1 was determined.

[4] = test system: idiopathic pulmonary fibrosis; assay: SD rat left unilateral pulmonary fibrosis model; type: in vivo
[5] = Solid-state stability test of crystal form A under high temperature and high humidity (HPLC, XRPD); type: physicochemical; details: for Appearance / Crystal form / Purity / Total impurities: open
Procedure: 16 samples of 10 mg of crystal form A were weighed in parallel and spread evenly on the bottom of glass bottles, and 8 samples of 20 mg of crystal form A were spread out into a thin layer. All sample bottles were sealed with aluminum foil, and some small holes were punched on the aluminum foil to allow the samples to fully contact with the ambient air. The samples were placed at 40° C./75% RH and 60° C./75% RH for 1 month, 2 months and 3 months, respectively.
Analytical method: Agilent 1260 HPLC with DAD detector or Waters 2695 HPLC with PDA detector was used: column: Waters Atlantis dC18 (4.6 mm×150 mm, 3.0 μm); column temperature: 40° C.; flow rate: 1.0 mL/min; detection wavelength: 230 nm; injection volume: 10 μL; sample concentration: 0.5 mg/mL; diluent: acetonitrile:water=1:1 (v/v); the following mobile phase gradients were used for analysis: […]

Crystal form ([1]; suspension in Acetone): Form A | Crystal form ([1]; suspension in Acetone:Water (1:2)): Form A | Crystal form ([1]; suspension in Acetonitrile): Form A | Crystal form ([1]; suspension in Ethanol): Form A | Crystal form ([1]; suspension in Ethyl acetate): Form A | Crystal form ([1]; suspension in Water): Form A
Structure (SMILES): CC1(c2ccc(=O)n(-c3ccsc3)c2)COC1 [Compound 1]

Structure (SMILES): Cc1ccc(=O)n(-c2ccccc2)c1 [Pirfenidone (PFD), Pirfenidone, reference compound]
inhibition at 500 µM (TNF-α; rat blood, LPS 100 μg/mL, compound 0.5 mM): 53.5%

solubility ([2]; aqueous with cosolvent or surfactant or cyclodextrin, Acetone-water (1:2)): 52 to 103 mg/mL (≈ 210 to 416 mM) | solubility ([2]; aqueous with cosolvent or surfactant or cyclodextrin, Acetonitrile-water (1:1)): > 100 mg/mL | solubility ([2]; aqueous with cosolvent or surfactant or cyclodextrin, Ethanol-water (1:1)): > 100 mg/mL | solubility ([2]; aqueous with cosolvent or surfactant or cyclodextrin, Ethanol-water (3:1)): > 104 mg/mL | solubility ([2]; aqueous with cosolvent or surfactant or cyclodextrin, Isopropanol-water (1:1)): > 102 mg/mL | solubility ([2]; aqueous with cosolvent or surfactant or cyclodextrin, Methanol-water (1:1)): > 102 mg/mL | solubility ([2]; aqueous with cosolvent or surfactant or cyclodextrin, Methanol-water (3:1)): > 104 mg/mL | solubility ([2]; organic solvent or mixture, 1,4-dioxane): > 102 mg/mL | solubility ([2]; organic solvent or mixture, 2-Methyltetrahydrofuran): 34 to 51 mg/mL (≈ 137 to 206 mM) | solubility ([2]; organic solvent or mixture, Acetone): 52 to 103 mg/mL (≈ 210 to 416 mM) | solubility ([2]; organic solvent or mixture, Acetonitrile): > 100 mg/mL | solubility ([2]; organic solvent or mixture, Cyclohexane): < 2 mg/mL | solubility ([2]; organic solvent or mixture, Ethanol): 51 to 102 mg/mL (≈ 206 to 412 mM) | solubility ([2]; organic solvent or mixture, Ethyl acetate): 34 to 51 mg/mL (≈ 137 to 206 mM) | solubility ([2]; organic solvent or mixture, Heptane): < 2 mg/mL | solubility ([2]; organic solvent or mixture, Isopropanol): 34 to 52 mg/mL (≈ 137 to 210 mM) | solubility ([2]; organic solvent or mixture, Isopropyl acetate): 20 to 34 mg/mL (≈ 80.9 to 137 mM) | solubility ([2]; organic solvent or mixture, Methanol): > 104 mg/mL | solubility ([2]; organic solvent or mixture, Methyl ethyl ketone): 52 to 104 mg/mL (≈ 210 to 421 mM) | solubility ([2]; organic solvent or mixture, Methyl isobutyl ketone): 34 to 51 mg/mL (≈ 137 to 206 mM) | solubility ([2]; organic solvent or mixture, Methyl tert-butyl ether): < 2 mg/mL | solubility ([2]; organic solvent or mixture, Tetrahydrofuran): 51 to 102 mg/mL (≈ 206 to 412 mM) | solubility ([2]; organic solvent or mixture, Toluene): 35 to 52 mg/mL (≈ 142 to 210 mM) | solubility ([2]; organic solvent or mixture, n-butanol): 50 to 100 mg/mL (≈ 202 to 404 mM) | solubility ([2]; Water): 10 to 21 mg/mL (≈ 40.4 to 84.9 mM) | Appearance ([3]; 25° C./92.5% RH (open)): White | Crystal form ([3]; 25° C./92.5% RH (open)): Form A | Appearance ([3]; 40° C./75% RH (open)): White | Crystal form ([3]; 40° C./75% RH (open)): Form A | Appearance ([3]; 60° C. (open)): White | Crystal form ([3]; 60° C. (open)): Form A | Appearance ([3]; Light irradiation): White | Crystal form ([3]; Light irradiation): Form A | Solid-state physical stability (conclusion) ([3]; within 10 days under each condition): stable | Stability of crystal form in solvents (conclusion) ([1]; under the conditions of the solvents of Table 4): stable | Appearance ([5]; 40° C./75% RH, 1 M): White powder | Crystal form ([5]; 40° C./75% RH, 1 M): Form A | Purity ([5]; 40° C./75% RH, 1 M): 99.949% | Total impurities ([5]; 40° C./75% RH, 1 M): 0.051% | Appearance ([5]; 40° C./75% RH, 2 M): White powder | Crystal form ([5]; 40° C./75% RH, 2 M): Form A | Purity ([5]; 40° C./75% RH, 2 M): 99.948% | Total impurities ([5]; 40° C./75% RH, 2 M): 0.052% | Appearance ([5]; 40° C./75% RH, 3 M): White powder | Crystal form ([5]; 40° C./75% RH, 3 M): Form A | Purity ([5]; 40° C./75% RH, 3 M): 99.947% | Total impurities ([5]; 40° C./75% RH, 3 M): 0.053% | Appearance ([5]; 60° C./75% RH, 1 M): White powder | Crystal form ([5]; 60° C./75% RH, 1 M): Form A | Purity ([5]; 60° C./75% RH, 1 M): 99.949% | Total impurities ([5]; 60° C./75% RH, 1 M): 0.051% | Appearance ([5]; 60° C./75% RH, 2 M): White powder | Crystal form ([5]; 60° C./75% RH, 2 M): Form A | Purity ([5]; 60° C./75% RH, 2 M): 99.948% | Total impurities ([5]; 60° C./75% RH, 2 M): 0.052% | Appearance ([5]; 60° C./75% RH, 3 M): White powder | Crystal form ([5]; 60° C./75% RH, 3 M): Form A | Purity ([5]; 60° C./75% RH, 3 M): 99.950% | Total impurities ([5]; 60° C./75% RH, 3 M): 0.050% | Solid-state stability (conclusion) ([5]; within three months, 40° C./75% RH and 60° C./75% RH): stable
Structure (SMILES): CC1(c2ccc(=O)n(-c3ccsc3)c2)COC1 [crystal form A]
Inhibitory effect on idiopathic pulmonary fibrosis (in words) [4]: significant inhibitory effect | Inhibitory effect on TNF-α level induced by LPS (in words) (TNF-α; final concentration 0.1 mM, inhibition significantly higher than Pirfenidone): significant inhibitory effect | inhibition at 100 µM (TNF-α; rat blood, LPS 100 μg/mL, compound 0.1 mM): 80.8%
